Measurements reported in patent US7625908B2, “Quinazoline derivatives” (AstraZeneca AB, priority 2003, dated 2009).

Experiments:
EGFR tyrosine kinase = target: T1, EGFR tyrosine kinase (Homo sapiens, UniProt P00533); test: Protein tyrosine kinase phosphorylation assay, Test (a), EGFR; assay type: biochemical; details: recombinant intracellular fragment, ATP at Km; read-out: IC50 (μM) Test (a): Inhibition of EGFR tyrosine kinase protein phosphorylation
T1 construct: Recombinant intracellular fragments of EGFR, erbB2 and erbB4; made in house; host or cells: baculovirus/Sf21 insect cells (cleared lysate used)
T1 sequence (P00533 669-1210 limits assumed): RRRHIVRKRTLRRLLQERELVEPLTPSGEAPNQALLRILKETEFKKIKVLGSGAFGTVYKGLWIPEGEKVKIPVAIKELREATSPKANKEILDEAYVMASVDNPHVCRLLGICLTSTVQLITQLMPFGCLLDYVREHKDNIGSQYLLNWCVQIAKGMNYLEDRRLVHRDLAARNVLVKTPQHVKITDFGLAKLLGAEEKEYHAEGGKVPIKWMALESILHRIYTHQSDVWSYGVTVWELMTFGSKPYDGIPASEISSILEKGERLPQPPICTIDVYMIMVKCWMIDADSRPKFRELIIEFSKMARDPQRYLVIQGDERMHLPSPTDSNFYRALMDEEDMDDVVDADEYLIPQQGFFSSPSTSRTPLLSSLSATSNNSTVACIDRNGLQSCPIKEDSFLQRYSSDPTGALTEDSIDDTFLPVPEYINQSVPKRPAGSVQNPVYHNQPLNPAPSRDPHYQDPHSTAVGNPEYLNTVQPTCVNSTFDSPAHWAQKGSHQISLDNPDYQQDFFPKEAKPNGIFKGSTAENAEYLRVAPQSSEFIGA
Method: (§1) a) Protein Tyrosine Kinase phosphorylation Assays
(§2) This test measures the ability of a test compound to inhibit the phosphorylation of a tyrosine containing polypeptide substrate by an erb receptor tyrosine kinase enzyme.
(§3) Recombinant intracellular fragments of EGFR, erbB2 and erbB4 (accession numbers X00588, X03363 and L07868 respectively) were cloned and expressed in the baculovirus/Sf21 system. Lysates were prepared from these cells by treatment with ice-cold lysis buffer (20 mM N-2-hydroxyethylpiperizine-N′-2-ethanesulfonic acid (HEPES) pH7.5, 150 mM NaCl, 10% glycerol, 1% Triton X-100, 1.5 mM MgCl2, 1 mM ethylene glycol-bis(β-aminoethyl ether) N′,N′,N′,N′-tetraacetic acid (EGTA), plus protease inhibitors and then cleared by centrifugation.
(§4) Constitutive kinase activity of these recombinant proteins was determined by their ability to phosphorylate a synthetic peptide (made up of a random co-polymer of Glutamic Acid, Alanine and Tyrosine in the ratio of 6:3:1). Specifically, Maxisorb™ 96-well immunoplates were coated with synthetic peptide (0.2 μg of peptide in a 200 μl phosphate buffered saline (PBS) solution and incubated at 4° C. overnight). Plates were washed in 50 mM HEPES pH 7.4 at room temperature to remove any excess unbound synthetic peptide. […]
(§5) The immobilised phospho-peptide product of the reaction was detected by immunological methods. […] After further washing, HRP activity in each well of the plate was measured colorimetrically using 22′-Azino-di-[3-ethylbenzthiazoline sulfonate (6)]diammonium salt crystals (ABTS™ from Roche) as a substrate.
(§6) Quantification of colour development and thus enzyme activity was achieved by the measurement of absorbance at 405 nm on a Molecular Devices ThermoMax microplate reader. Kinase inhibition for a given compound was expressed as an IC50 value. […] The range of phosphorylation was calculated from the positive (vehicle plus ATP) and negative (vehicle minus ATP) control values.

erbB2 tyrosine kinase = target: T2, erbB2 tyrosine kinase (Homo sapiens, UniProt P04626); test: Protein tyrosine kinase phosphorylation assay, Test (a), erbB2; assay type: biochemical; details: recombinant intracellular fragment, ATP at Km; read-out: IC50 (μM) Test (a): Inhibition of erbB2 tyrosine kinase protein phosphorylation
T2 construct: Recombinant intracellular fragments of EGFR, erbB2 and erbB4; made in house; host or cells: baculovirus/Sf21 insect cells (cleared lysate used)
T2 sequence (P04626 676-1255 limits assumed): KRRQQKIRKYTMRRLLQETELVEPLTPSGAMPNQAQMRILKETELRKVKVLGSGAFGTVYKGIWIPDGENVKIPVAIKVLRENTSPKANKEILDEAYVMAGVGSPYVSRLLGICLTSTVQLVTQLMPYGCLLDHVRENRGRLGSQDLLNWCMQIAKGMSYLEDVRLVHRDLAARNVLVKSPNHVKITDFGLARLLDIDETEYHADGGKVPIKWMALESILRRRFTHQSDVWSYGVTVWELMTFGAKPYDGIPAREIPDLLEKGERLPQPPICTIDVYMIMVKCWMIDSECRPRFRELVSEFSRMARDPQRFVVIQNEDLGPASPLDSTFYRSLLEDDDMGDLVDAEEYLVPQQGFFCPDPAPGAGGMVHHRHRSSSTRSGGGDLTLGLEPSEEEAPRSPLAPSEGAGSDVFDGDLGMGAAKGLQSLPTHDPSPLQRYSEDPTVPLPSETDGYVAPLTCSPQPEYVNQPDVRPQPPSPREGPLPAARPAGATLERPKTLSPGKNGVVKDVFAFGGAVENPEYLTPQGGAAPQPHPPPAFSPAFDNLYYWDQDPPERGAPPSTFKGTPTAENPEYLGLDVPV
Method: as §1, §2, §3, §4, §5, §6

[1] = target: T3, erbB2 in a MCF7 derived cell line (Clone 24 cells) (Homo sapiens, UniProt P04626); test: Clone 24 phospho-erbB2 cell assay, Test (d); assay type: cell-based; details: 4 hours, read-out: IC50 (μM) Test (d): Inhibition of erbB2 tyrosine kinase protein phosphorylation
T3 construct: to give a cell line that overexpresses full length wild type erbB2 protein; expressed in transfected cells
T3 sequence (P04626 23-1255): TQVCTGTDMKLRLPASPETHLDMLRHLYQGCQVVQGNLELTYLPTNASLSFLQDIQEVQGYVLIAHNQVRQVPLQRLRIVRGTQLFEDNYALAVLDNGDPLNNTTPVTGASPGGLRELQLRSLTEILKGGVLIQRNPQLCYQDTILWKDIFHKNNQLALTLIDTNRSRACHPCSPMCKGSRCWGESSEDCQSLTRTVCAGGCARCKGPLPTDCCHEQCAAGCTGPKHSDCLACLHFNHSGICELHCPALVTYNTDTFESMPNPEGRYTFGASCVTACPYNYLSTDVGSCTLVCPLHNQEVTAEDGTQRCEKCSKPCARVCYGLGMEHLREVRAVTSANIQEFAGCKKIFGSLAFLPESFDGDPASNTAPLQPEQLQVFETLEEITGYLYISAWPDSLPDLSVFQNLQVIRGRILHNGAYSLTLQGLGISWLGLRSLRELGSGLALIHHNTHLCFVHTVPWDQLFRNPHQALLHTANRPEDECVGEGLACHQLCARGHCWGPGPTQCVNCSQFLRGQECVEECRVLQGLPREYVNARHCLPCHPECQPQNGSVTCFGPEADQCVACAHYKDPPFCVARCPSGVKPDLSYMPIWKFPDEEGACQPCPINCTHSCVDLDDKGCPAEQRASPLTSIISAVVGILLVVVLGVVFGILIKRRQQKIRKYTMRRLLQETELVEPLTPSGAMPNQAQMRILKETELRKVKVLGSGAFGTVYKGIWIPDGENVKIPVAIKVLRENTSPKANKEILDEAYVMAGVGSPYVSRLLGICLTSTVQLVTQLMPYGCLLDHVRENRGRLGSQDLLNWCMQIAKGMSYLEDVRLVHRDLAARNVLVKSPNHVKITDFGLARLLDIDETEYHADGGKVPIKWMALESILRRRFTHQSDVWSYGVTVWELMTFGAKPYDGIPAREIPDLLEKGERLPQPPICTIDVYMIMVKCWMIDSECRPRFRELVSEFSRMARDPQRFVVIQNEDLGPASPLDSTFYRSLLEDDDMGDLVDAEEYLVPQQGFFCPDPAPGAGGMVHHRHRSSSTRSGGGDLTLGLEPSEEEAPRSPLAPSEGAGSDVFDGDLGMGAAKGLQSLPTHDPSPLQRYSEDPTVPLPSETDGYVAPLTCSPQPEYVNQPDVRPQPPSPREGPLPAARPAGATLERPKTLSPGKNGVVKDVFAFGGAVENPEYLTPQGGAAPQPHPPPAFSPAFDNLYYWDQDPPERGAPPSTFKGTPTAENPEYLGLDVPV
Method: d) Clone 24 Phospho-erbB2 Cell Assay
This immunofluorescence end point assay measures the ability of a test compound to inhibit the phosphorylation of erbB2 in a MCF7 (breast carcinoma) derived cell line which was generated by transfecting MCF7 cells with the full length erbB2 gene using standard methods to give a cell line that overexpresses full length wild type erbB2 protein (hereinafter ‘Clone 24’ cells).
Clone 24 cells were cultured in Growth Medium (phenol red free Dulbecco's modified Eagle's medium (DMEM) containing 10% foetal bovine serum, 2 mM glutamine and 1.2 mg/ml G418) in a 7.5% CO2 air incubator at 37° C. Cells were harvested from T75 stock flasks by washing once in PBS (phosphate buffered saline, pH7.4, Gibco No. 10010-015) and harvested using 2 mls of Trypsin (1.25 mg/ml)/ethylaminediaminetetraacetic acid (EDTA) (0.8 mg/ml) solution. The cells were resuspended in Growth Medium. Cell density was measured using a haemocytometer and viability was calculated using Trypan Blue solution before being further diluted in Growth Medium and seeded at a density of 1×10^4 cells per well (in 10 ul) into clear bottomed 96 well plates (Packard, No. 6005182).
3 days later, Growth Medium was removed from the wells and replaced with 100 ul Assay Medium (phenol red free DMEM, 2 mM glutamine, 1.2 mg/ml G418) either with or without erbB inhibitor compound. Plates were returned to the incubator for 4 hours and then 20 μl of 20% formaldehyde solution in PBS was added to each well and the plate was left at room temperature for 30 minutes. This fixative solution was removed with a multichannel pipette, 100 μl of PBS was added to each well and then removed with a multichannel pipette and then 50 μl PBS was added to each well. Plates were then sealed and stored for up to 2 weeks at 4° C.
Immunostaining was performed at room temperature. […]
The Fluorescence signal is each well was measured using an Acumen Explorer Instrument (Acumen Bioscience Ltd.), a plate reader that can be used to rapidly quantitate features of images generated by laser-scanning. […]

| IC50 (EGFR tyrosine kinase) | IC50 (erbB2 tyrosine kinase) | IC50 [1] | Compound |
| --- | --- | --- | --- |
| 0.414 µM | 0.002 µM | 0.009 µM | O=C(CO)N(CCOc1cccc2ncnc(Nc3ccc(OCc4ccccn4)c(Cl)c3)c12)C1CCOCC1 [Example 21, N-{2-[(4-{[3-Chloro-4-(pyridin-2-ylmethoxy)phenyl]amino}quinazolin-5-yl)oxy]ethyl}-2-hydroxy-N-(tetrahydro-2H-pyran-4-yl)acetamide] |
| 0.197 µM | 0.002 µM | 0.112 µM | CC(O)C(=O)N(C)CCOc1cccc2ncnc(Nc3ccc(OCc4ccccn4)c(Cl)c3)c12 (stereo not drawn) [Example 28, N-{2-[(4-{[3-Chloro-4-(pyridin-2-ylmethoxy)phenyl]amino}quinazolin-5-yl)oxy]ethyl}-2-hydroxy-N-methylpropanamide] |
| 1.88 µM | 0.017 µM | 0.021 µM | CC(=O)N(C)C[C@@H](C)Oc1cccc2ncnc(Nc3ccc(Oc4ccc(C)nc4)c(C)c3)c12 [Example 104, N-Methyl-N-((2R)-2-{[4-({3-methyl-4-[(6-methylpyridin-3-yl)oxy]phenyl}amino)quinazolin-5-yl]oxy}propyl)acetamide] |
